The record followed here is patent US10441628B2, “High activity tumour inhibitor and preparation method and use thereof” (BAO KANG BIOMEDICAL HEALTHCARE INC, priority 2014, dated 2019).

The IC50 is the concentration at which inhibition is half-maximal.

Where two headings read alike, the source gives them in different places. Positions of bridges follow the written chain, without caps; N, C: chain ends. Non-standard residues stand in square brackets, D forms with d. Residues, ends and D or L forms follow the SMILES beside them. No end group written: not given here. *: point of attachment. Phe(3-Cl) = N[C@@H](Cc1cccc(Cl)c1)C(=O)O; Stearoyl = CCCCCCCCCCCCCCCCCC(=O)*; hCys = N[C@@H](CCS)C(=O)O; Nle = CCCC[C@H](N)C(=O)O; Orn = NCCC[C@H](N)C(=O)O; Dab = NCC[C@H](N)C(=O)O

For series [1] the following is noted: plasma.
Protocol: (§4) For the YAP inhibitory polypeptides modified in above (a) and (b), the IC50 values for TEAD binding and the stability in plasma were measured.
A short description of series [2]: Cell penetration or infiltration of polypeptides. Format: cell-based. The conditions noted are these: penetration of the peptide with RRMKWKK taken as 100%. From the text: In this example, the sequence was modified based on SEQ ID NO.: 1. Some preferred modification based on the tested results included: adding a disulfide linkage within the peptide, or adding a cell-penetrating element.

The test system of series [3] is BEL7404. Type of series: cell-based. The procedure: (§1) The hepatoma cell line BEL7404 (purchased from The Chinese Academy of Sciences cell bank) was a cell line with high expression of YAP protein; HCCLM3 (purchased from The Chinese Academy of Sciences cell bank) was a cell line with low expression of YAP protein. The hepatoma cell lines (BEL7404 or HCCLM3) were inoculated into a 96-well plate at the concentration of 2000 cells/well, and incubated overnight in RPMI1640 containing 1% bovine serum at 37° C. The hepatoma cell lines were treated with polypeptides having different concentrations at 37° C. for 72 h.
(§2) Moreover, IC50 values of the cells in 1.1 were determined using CCK-8 kit.
(§3) The polypeptide represented by SEQ ID NO.:1 was further modified. The IC50 values of the polypeptides at a concentration of 1% in cell cultivating for 72 h were measured.

The next series has as its system HCCLM3. Type of series: cell-based. As for the experimental part:
as §1, §2, §3

Another series concerns MHCC97L. Kind of series: Cell proliferation inhibition of MHCC97L by liposome formulations / acylated polypeptides, CCK-8. Type of series: cell-based. The procedure: MHCC97L (ATCC) cells were seeded in 96-well plates with 10% FBS DMEM medium at a density of 4000 cells/well and incubated overnight at 37° C. […] The cell viability was determined by CCK-8 kit.
Series [4] relates to BEL7404. Briefly: Cell proliferation inhibition of BEL7404 by liposome formulations / acylated polypeptides, CCK-8. Type of series: cell-based.
A short description of series [5]: Stability in plasma (residual peptide).
Protocol: as §4
The target of the next series is TEAD (UniProt P28347). Kind of series: TEAD binding (TR-FRET test). The procedure:
The interaction of the two molecules makes the two fluorophores close to each other and generate energy transfer, and then fluoresce at specific wavelength is transmitted.
The sequences of the modified peptides were represented by SEQ ID NOs.: 8 and 9. The IC50 values for TEAD binding and stability in plasma were measured.
The modified polypeptides were tested to measure IC50 values for TEAD binding and stability in plasma.
For orientation: TR-FRET usually uses a lanthanide donor and a delayed reading to cut background.

The next series is described as follows: in vitro. The conditions noted are these: plasma.

Chain of TEAD (P28347 whole entry): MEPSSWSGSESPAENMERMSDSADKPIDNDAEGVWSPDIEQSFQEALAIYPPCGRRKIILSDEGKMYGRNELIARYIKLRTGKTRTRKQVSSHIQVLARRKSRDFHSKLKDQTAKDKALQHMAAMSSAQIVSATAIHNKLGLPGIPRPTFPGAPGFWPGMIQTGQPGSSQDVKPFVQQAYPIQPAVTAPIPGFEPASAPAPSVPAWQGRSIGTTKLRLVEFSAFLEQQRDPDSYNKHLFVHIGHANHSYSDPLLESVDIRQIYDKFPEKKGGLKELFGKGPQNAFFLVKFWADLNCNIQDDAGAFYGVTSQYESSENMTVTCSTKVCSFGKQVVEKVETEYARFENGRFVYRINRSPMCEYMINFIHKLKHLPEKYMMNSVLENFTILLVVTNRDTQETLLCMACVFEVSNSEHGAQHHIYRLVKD
Protocol for in vitro: as §4

“3: Peptide (SEQ ID NO.: 1) + Cell-penetrating element 1 (RRMKWKK, SEQ ID NO.: 13) (VPMRLRKLPDSFFKPPERRMKWKK; cell penetrating element; listed as Homo sapiens) [Peptide 3]”: the “Stability (4 h)” value in [1] was determined as 49%. The “Percentage of Cell penetration or infiltration” value (shortened to “Percentage”) in series [2] is 100%.
For “4: Peptide (SEQ ID NO.: 1) + Cell-penetrating element 2 (RGRKKRRQRRR, SEQ ID NO.: 14) (VPMRLRKLPDSFFKPPERGRKKRRQRRR; cell penetrating element; listed as Homo sapiens) [Peptide 4]”, the “Percentage” value in [2] was 135%.
Regarding “32 (VPXLXKKXPASFKCPPRRMKWKK; (3)..(3) Xaa=(3Cl-)F; (5)..(5) Xaa=Hcy; (8)..(8) Xaa=Nle) [compound 32]”, the IC50 with BEL7404 [3] (concentration of 1% in cell cultivating for 72 h, read-out: IC50 BEL7404) was 38.4 ± 3.8 µM; with HCCLM3 (concentration of 1% in cell cultivating for 72 h, read-out: IC50 HCCLM3) it was 319 ± 17.5 µM.
Consider `CCCCCCCCCCCCCCCCCC(=O)NCCCC[C@H](NC(=O)[C@@H]1CSSCC[C@H](NC(=O)[C@H](CCCCN)NC(=O)[C@H](CCCCN)NC(=O)[C@H](CC(C)C)NC(=O)[C@H](Cc2cccc(Cl)c2)NC(=O)[C@@H]2CCCN2C(=O)[C@@H](NC(C)=O)C(C)C)C(=O)N[C@@H](CCCC)C(=O)N2CCC[C@H]2C(=O)N[C@@H](C)C(=O)N[C@@H](CO)C(=O)N[C@@H](Cc2ccccc2)C(=O)N[C@@H](CCCCN)C(=O)N2CCC[C@H]2C(=O)N2CCC[C@H]2C(=O)N1)C(N)=O` [P49 polypeptide] (Ac-VP[Phe(3-Cl)]LKK[hCys][Nle]PASFKPPCK(Stearoyl)-NH2; disulfide 7-16), for which the values for the IC50 in the series with MHCC97L and with BEL7404 [4] were 7.83 ± 2.69 µM and 2.02 ± 0.39 µM, respectively.
With `CSCC[C@H](NC(=O)[C@@H]1CCCN1C(=O)[C@@H](N)C(C)C)C(=O)N[C@H]1CCSSC[C@@H](C(=O)N[C@@H](CCCCN)C(=O)N2CCC[C@H]2C(=O)N2CCC[C@H]2C(=O)N[C@@H](CCC(=O)O)C(=O)O)NC(=O)[C@H](Cc2ccccc2)NC(=O)[C@H](CO)NC(=O)[C@H](CC(=O)O)NC(=O)[C@@H]2CCCN2C(=O)[C@H](CC(C)C)NC(=O)[C@H](CCCCN)NC(=O)[C@H](CCCNC(=N)N)NC(=O)[C@H](CC(C)C)NC1=O` [Peptide 2], in series [2], the “Percentage” value is reported as 8%. Besides, the fraction remaining at 4 h in series [5] (plasma, Stability (4 h), plasma, percentage of residual peptides after 4 h) was found to be 93%.
On to `CSCC[C@H](NC(=O)[C@@H]1CCCN1C(=O)[C@@H](N)C(C)C)C(=O)N[C@@H](CCCNC(=N)N)C(=O)N[C@@H](CC(C)C)C(=O)N[C@@H](CCCNC(=N)N)C(=O)N[C@@H](CCCCN)C(=O)N[C@@H](CC(C)C)C(=O)N1CCC[C@H]1C(=O)N[C@@H](CC(=O)O)C(=O)N[C@@H](CO)C(=O)N[C@@H](Cc1ccccc1)C(=O)N[C@@H](Cc1ccccc1)C(=O)N[C@@H](CCCCN)C(=O)N1CCC[C@H]1C(=O)N1CCC[C@H]1C(=O)N[C@@H](CCC(=O)O)C(=O)O` [SEQ ID NO.: 1], for which the concentration for half-maximal inhibition (IC50) in the series on BEL7404 [3] (72 h) amounted to 388 ± 43.6 µM; with HCCLM3 (72 h), 809 ± 27.4 µM. In addition, the “stability (in words)” value in series [5] is given as “low stability”. Further, in [5] (plasma), the share remaining at 4 h turned out to be 0%. In addition, the “Stability (>24 h)” value in series [5] (plasma, percentage of residual peptides after >24 h) was determined as 0%.
Compound `CC(C)C[C@@H]1NC(=O)[C@@H](NC(=O)[C@H](Cc2ccccc2)NC(=O)[C@@H]2CCCN2C(=O)[C@@H](N)C(C)C)CCSSC[C@@H](C(=O)N[C@@H](CCCCN)C(=O)N2CCC[C@H]2C(=O)N2CCC[C@H]2C(=O)N[C@@H](CCC(=O)O)C(=O)O)NC(=O)[C@H](Cc2ccccc2)NC(=O)[C@H](CO)NC(=O)[C@H](CC(=O)O)NC(=O)[C@@H]2CCCN2C(=O)[C@H](CC(C)C)NC(=O)[C@H](CCCN)NC(=O)[C@H](CCCNC(=N)N)NC1=O` [compound 5] (H-VPF[hCys]LR[Orn]LPDSFCKPPE-OH; disulfide 4-13 (inferred); N-terminus and C-terminus assumed) came in with an IC50 on TEAD of 0.043 µM. For the same compound, the fraction remaining at 4 h in “in vitro” turned out to be 99%.
In the case of `CC(C)C[C@@H]1NC(=O)[C@@H](NC(=O)[C@H](Cc2ccccc2)NC(=O)[C@@H]2CCCN2C(=O)[C@@H](N)C(C)C)CCSSC[C@@H](C(=O)N[C@@H](CCCCN)C(=O)N2CCC[C@H]2C(=O)N2CCC[C@H]2C(=O)N[C@@H](CCC(=O)O)C(=O)O)NC(=O)[C@H](Cc2ccccc2)NC(=O)[C@H](CO)NC(=O)[C@H](CC(=O)O)NC(=O)[C@@H]2CCCN2C(=O)[C@H](CC(C)C)NC(=O)[C@H](CCN)NC(=O)[C@H](CCCNC(=N)N)NC1=O` [compound 6] (H-VPF[hCys]LR[Dab]LPDSFCKPPE-OH; disulfide 4-13 (inferred); N-terminus and C-terminus assumed), the IC50 on TEAD was found to be 0.028 µM. Further, in “in vitro”, the share remaining at 4 h amounted to 98%.
On the same counts, the results for `CSCC[C@H](NC(=O)[C@@H]1CCCN1C(=O)[C@@H](N)C(C)C)C(=O)N[C@H]1CSSC[C@@H](C(=O)N[C@@H](Cc2c[nH]cn2)C(=O)N2CCC[C@H]2C(=O)N2CCC[C@H]2C(=O)N[C@@H](CCC(=O)O)C(=O)O)NC(=O)[C@H](Cc2ccccc2)NC(=O)[C@H](CO)NC(=O)[C@H](CCC(=O)O)NC(=O)[C@@H]2CCCN2C(=O)[C@H](CC(C)C)NC(=O)[C@H](CCCCN)NC(=O)[C@H](CCCNC(=N)N)NC(=O)[C@H](CC(C)C)NC1=O` [compound 8] (H-VPMCLRKLPESFCHPPE-OH; disulfide 4-13; N-terminus and C-terminus assumed) are 0.028 µM and 105%.
`CSCC[C@H](NC(=O)[C@@H]1CCCN1C(=O)[C@@H](N)C(C)C)C(=O)N[C@H]1CCSSC[C@@H](C(=O)N[C@@H](CC(=O)O)C(=O)N2CCC[C@H]2C(=O)N2CCC[C@H]2C(=O)N[C@@H](CCC(=O)O)C(=O)O)NC(=O)[C@H](Cc2ccccc2)NC(=O)[C@H](CO)NC(=O)[C@H](CS)NC(=O)[C@@H]2CCCN2C(=O)[C@H](CC(C)C)NC(=O)[C@H](CCCCN)NC(=O)[C@H](CCCNC(=N)N)NC(=O)[C@H](CC(C)C)NC1=O` [compound 9] (H-VPM[hCys]LRKLPCSFCDPPE-OH; disulfide 4-13): on TEAD, the IC50 was 0.025 µM. In the series “in vitro”, the amount remaining at 4 h turned out to be 100%.
For the compound PAGWEMAKTSSGQRYF [compound 20], the half-inhibitory concentration (IC50) was 444 ± 46.5 µM in the series with BEL7404 [3] (72 h) and greater than 1000 µM in the series with HCCLM3 (72 h).
On the same counts, the results for PQGQGPPSGPGQPAPA [compound 16] are 242 ± 27.2 µM and greater than 1000 µM.
